Reference: patent EP0994871B1, “NOVEL SUBSTITUTED NAPHTHOPYRANS” (TRANSITIONS OPTICAL, INC., priority 1997, dated 1998)

Experiments:
[1] = Lambda max of the activated (colored) form in a diethylene glycol bis(allyl carbonate) composition; format: physicochemical; conditions: wavelength in the visible spectrum of maximum absorption of the activated (colored) form in a diethylene glycol bis(allyl carbonate) composition
Experimental: (§1) The Δ OD/Min, which represents the sensitivity of the photochromic compound's response to UV light, was measured over the first five (5) seconds of UV exposure, then expressed on a per minute basis. The saturation optical density (OD) was taken under identical conditions as the A OD/Min, except UV exposure was continued for 20 minutes for the examples in Table 1. The lambda max reported in Table 1 is the wavelength in the visible spectrum at which the maximum absorption of the activated (colored) form of the photochromic compound in a diethylene glycol bis(allyl carbonate) composition occurs. The Bleach Rate (T 1/2) is the time interval in seconds for the absorbance of the activated form of the naphthopyran in the test squares to reach one half the highest absorbance at room temperature (75°F, 23.9°C) after removal of the source of activating light.

[2] = Photochromic response of polymeric test squares on an optical bench; format: physicochemical; conditions: for ΔOD@ SATURATION: UV exposure continued for 20 minutes; for ΔOD@ SATURATION / ΔOD/MIN SENSITIVITY: test squares, 75°F (23.9°C); for ΔOD/MIN SENSITIVITY: measured over the first five (5) seconds of UV exposure, expressed on a per minute basis; for Bleach (T1/2): time for absorbance of the activated form in the test squares to reach one half the highest absorbance at room temperature (75°F, 23.9°C) after removal of activating light
Experimental: Testing was done with the photochromic naphthopyrans of the Examples incorporated into polymeric samples by the following method. The quantity of naphthopyran calculated to yield a 1.5 times 10^-3 molal solution was added to a flask containing 50 grams of a monomer blend of 4 parts ethoxylated bisphenol A dimethacrylate (BPA 2EO DMA), 1 part poly(ethylene glycol) 600 dimethacrylate, and 0.033 weight percent 2,2'-azobis(2-methyl propionitrile) (AIBN). The naphthopyran was dissolved into the monomer blend by stirring and gentle heating, if necessary. After a clear solution was obtained, it was poured into a flat sheet mold having the interior dimensions of 2.2 mm x 6 inches (15.24 cm) x 6 inches (15.24 cm). The mold was sealed and placed in a horizontal air flow, programmable oven set to increase the temperature from 40°C. to 95°C. over a 5 hour interval, hold the temperature at 95°C. for 3 hours and then lower it to 60°C. for at least 2 hours before the end of the curing cycle. After the mold was opened, the polymer sheet was cut using a diamond blade saw into 2 inch (5.1 centimeters) test squares.
The photochromic test squares prepared in Part A were tested for photochromic response rates on an optical bench. Prior to testing on the optical bench, the photochromic test squares were exposed to 365 nanometer ultraviolet light for about 15 minutes to activate the photochromic compounds and then placed into a 76°C oven for about 15 minutes to bleach or inactivate the photochromic compounds. The test squares were then cooled to room temperature, exposed to fluorescent room lighting for at least 2 hours and then kept covered for at least 2 hours prior to testing on an optical bench maintained at 75°F (23.9°C). The bench was fitted with a 150 watt Xenon arc lamp, a remote controlled shutter, a copper sulfate bath acting as a heat sink for the arc lamp, a Schott WG-320 nm cut-off filter which removes short wavelength radiation; neutral density filter(s) and a sample holder in which the square to be tested was inserted. A collimated beam of light from a tungsten lamp was passed through the square at a small angle normal to the square. After passing through the square, the light from the tungsten lamp was directed through a photopic filter attached to a detector. The photopic filter passes wavelengths such that the detector mimics the response of the human eye. The output signals from the detector(s) were processed by a radiometer.
Change in optical density (ΔOD) was determined by inserting a test square in the bleached state into the sample holder, adjusting the transmittance scale to 100%, opening the shutter from the Xenon lamp to provide ultraviolet radiation to change the test square from the bleached state to an activated (i.e., darkened) state, measuring the transmittance in the activated state, and calculating the change in optical density according to the formula A OD=log(100/%Ta) where %Ta is the percent transmittance in the activated state and the logarithm is to the base 10.
as §1

Structure (SMILES)	LAMBDA MAX (VISIBLE) [1]	ΔOD@ SATURATION [2]	ΔOD/MIN SENSITIVITY [2]	Bleach (T1/2) [2]
COc1ccc(C2(c3ccc(OC)cc3)C=Cc3c(Sc4ccccc4)c(OC(C)=O)c4ccccc4c3O2)cc1 [Example 4, 2,2-bis(4-methoxyphenyl)-5-phenylthio-6-acetoxy-2H-naphtho[1,2-b]pyran]	516 nm	0.23	0.22	0.7 min
COc1ccc(C2(c3ccc(OC)cc3)C=Cc3c(C(O)(c4ccccc4)c4ccccc4)c(O)c4ccccc4c3O2)cc1 [Example 10, 2,2-bis(4-methoxyphenyl)-5-diphenylmethylol-6-hydroxy-2H-naphtho[1,2-b]pyran]	482 nm	0.32	0.05	
COc1ccc(C2(c3ccc(OC)cc3)C=Cc3c(-c4cccn4C)c(OC(C)=O)c4ccccc4c3O2)cc1 [Example 1, 2,2-bis(4-methoxyphenyl)-5-(N-methylpyrrol-2-yl)-6-acetoxy-2H-naphtho[1,2-b]pyran]	513 nm	0.25	0.16	1.23 min
COc1c(C)c2c(c3ccccc13)OC1(C=C2)C2CC3CC(C2)CC1C3 (stereo not drawn) [Example 9, 2,2'-spiroadamantylene-5-methyl-6-methoxy-2H-naphtho[1,2-b]pyran]	462 nm	0.17	0.12	
COc1ccc(C2(c3ccc(OC)cc3)C=Cc3c(C)c(OC(C)=O)c4ccccc4c3O2)cc1 [Example 6, 2,2-bis(4-methoxyphenyl)-5-methyl-6-acetoxy-2H-naphtho[1,2-b]pyran]	506 nm	0.37	0.14	2 min
COc1ccc(C2(c3ccc(OC)cc3)C=Cc3c(-c4ccc(OC)cc4OC)c(OC(C)=O)c4ccccc4c3O2)cc1 [Example 2, 2,2-bis(4-methoxyphenyl)-5-(2,4-dimethoxyphenyl)-6-acetoxy-2H-naphtho[1,2-b]pyran]	511 nm	0.55	0.15	4.13 min
COc1ccc(C2(c3ccc(OC)cc3)C=Cc3c(Cl)c(OC(C)=O)c4ccccc4c3O2)cc1 [Example 5, 2,2-bis(4-methoxyphenyl)-5-chloro-6-acetoxy-2H-naphtho[1,2-b]pyran]	462 nm	0.07	0.08	0.9 min
COc1ccc(C2(c3ccc(OC)cc3)C=Cc3c(Sc4ccccc4)c(O)c4ccccc4c3O2)cc1 [Example 3, 2,2-bis(4-methoxyphenyl)-5-phenylthio-6-hydroxy-2H-naphtho[1,2-b]pyran]	516 nm	1.76	0.34	>10 min
Oc1c(Sc2ccccc2)c2c(c3ccccc13)OC1(C=C2)C2CC3CC(C2)CC1C3 (stereo not drawn) [Example 7, 2,2'-spiroadamantylene-5-phenylthio-6-hydroxy-2H-naphtho[1,2-b]pyran]	462 nm	0.47	0.15	
CC(=O)Oc1c(Sc2ccccc2)c2c(c3ccccc13)OC1(C=C2)C2CC3CC(C2)CC1C3 (stereo not drawn) [Example 8, 2,2'-spiroadamantylene-5-phenylthio-6-acetoxy-2H-naphtho[1,2-b]pyran]	459 nm	0.04	0.10	
